Structures are written as SMILES.

Results on 1 compound are retold here after US20260159815A1, “METHODS OF CULTURING CARDIAC CELLS AND USE OF CELLS FOR DISEASE MODELING” (Technion Research & Development Foundation Limited, priority 2023, published 2026).

The assay deals with iPSC-derived cardiomyocytes. The assay can be described thus: RT-qPCR of selected sarcomere genes (TNNI1, TNNI3). Type of assay: cell-based, human. Particulars: Torin1 10 nM and 25 nM, maturation media groups (3 mM glucose). As to the method: Gene expression (RT-qPCR): RNA was extracted from cells using […], then reverse transcribed to cDNA with the Iscript™ cDNA Synthesis Kit (Bio-Rad, US). The quantitative polymerase chain reaction was performed using the Lightcycler® 480 SYBR Green I Master (syber green) (Roche, Switzerland).
Cardiomyocyte maturation: hiPSCs were differentiated into cardiomyocytes as follows. On day 0, the hiPSC medium was replaced with CDM3 media supplemented with 6 μM CHIR99021 (R&D Systems, US) to induce differentiation toward a mesodermal fate. After 48 hours the same medium was use, supplemented with 2 μM of Wnt-C59 (Selleck Chemicals, US). After 48 hours, the medium was replaced with RPMI-B27-insulin (Thermo Fisher Scientific, US). On day 10, maturation process was started with the replacement of the medium with maturation media. This process continued for 14 days during which Torin1 was added only in the first 7 days. At the end of the process, several criteria were tested to characterize the maturation of the CMs and the other supporting cells. […]
On the technique in general: Quantitative PCR measures a nucleic acid by following its amplification.

As to `CCC(=O)N1CCN(c2ccc(-n3c(=O)ccc4cnc5ccc(-c6cnc7ccccc7c6)cc5c43)cc2C(F)(F)F)CC1` [Torin1], the “TNNI3 mRNA expression” value is listed as “trended toward increased expression of TNNI3 mRNA expression in a dose-dependent manner”.
